Experimental data published in US20220033434A1, “ANDROGEN RECEPTOR NUCLEIC ACIDS AND USES THEREOF” (Avidity Biosciences, Inc., priority 2016, published 2022).
In the oligonucleotide strings, read from the 5' end, every base follows the letter of its sugar. An asterisk marks phosphorothioate; unmarked linkages are phosphodiester. Other units and linkages are bracketed, terminal groups are in braces. A string of capitals states the bases alone. d = 2'-deoxy (DNA); m = 2'-O-methyl; f = 2'-fluoro

Experiments:
Format in all cases: cell-based, human
AR FL(1) = test: AR protein knock-down by Western blot after siRNA transfection in 22RV1 cells: AR FL(1); details: 5 nM siRNA, 50 h post transfection, compared to controls
Protocol: (§1) In some instances, a set of AR siRNAs were identified that were predicted to be specific in human and non-human primates (NHP) and cross-reactive with NHPs but not rodent AR mRNA. To identify AR siRNAs that regulate both full length AR and clinically relevant AR splice variants, the search for AR siRNAs was focused primarily, but not exclusively, on exons 1, 2 and 3 of the AR gene, which are common to most AR isoforms. The resulting set of 50 AR siRNAs (Tables 1-3) was assessed in two prostate cancer lines that express high levels of either clinically relevant AR splice variants (22RV1, ATCC) or a full length AR T877A LBD mutant (LNCaP, ATCC). The response of LNCaP tumors in xenograft models to AR antagonists is known to correlate well with clinical responses.
(§2) To monitor their ability to downregulate various AR isoforms, each siRNA was formulated at a single final concentration of 5 nM with a commercially-available transfection reagent (Lipofectamine RNAiMAX, Life Technologies) according to the manufacturer's “forward transfection” instructions. At 50 h (22RV1) and 72 h (LNCaP) post transfection, cells were harvested, and lysed in RIPA buffer (Pierce) supplemented with HALT protease inhibitors (Pierce) using standard procedures. The protein concentration was determined using a BCA protein concentration kit (Pierce). To monitor AR levels in these lysates, proteins (30 ug/lane) were separated by PAGE on BOLT 4-12% Bis-Tris PA gels (Life Technologies), transferred to nitrocellulose using an iBlot dry blot system (Thermo Fisher), and probed with specific antibodies against a region of the N-terminal domain of human AR that is common in known clinically relevant splice variants (N20, Santa Cruz Biotech). A second antibody against α-Tubulin was used as control (P16, Santa Cruz Biotech). Levels of these proteins in the respective cell lysates were quantified on an Odyssey imaging system (LICOR) using appropriate secondary antibodies linked to IRDyes (800CW, 680RD).

AR-SV(2) = test: AR protein knock-down by Western blot after siRNA transfection in 22RV1 cells: AR-SV(2); details: 5 nM siRNA, 50 h post transfection, compared to controls
Protocol: as §1, §2

AR-SV(3) = test: AR protein knock-down by Western blot after siRNA transfection in 22RV1 cells: AR-SV(3); details: 5 nM siRNA, 50 h post transfection, compared to controls
Protocol: as §1, §2

[1] = tested on: AR FL (full length AR T877A LBD mutant); test: AR protein knock-down by Western blot after siRNA transfection in LNCaP cells: AR FL; details: 5 nM siRNA, 72 h post transfection, compared to controls
Protocol: as §1, §2

AR mRNA [2] = test: AR mRNA downregulation by RT-qPCR at 5 nM siRNA in 22RV1 cells; details: 24 hrs post-transfection
Protocol: (§3) Focusing on siRNAs targeting AR sequences exons 1 and 2, the ability of these siRNAs to downregulate AR mRNA at a concentration of 5 nM was determined by RT-qPCR. For this purpose, siRNAs were transfected into 22RV1 and LNCaP cells as described above. At 24 hrs post-transfection, RNA was harvested from cells using a Qiagen RNeasy® Plus Mini Kit or Stratec InviTrap® RNA Cell HTS96 kit. The concentration of each isolated RNA was determined via A260 measurement using a NanoDrop spectrophotometer. RNA samples were reverse transcribed to cDNA using the High Capacity RNA to cDNA Kit (Life Technologies) according to the manufacturer's instructions. cDNA samples were then quantified by qPCR using AR-specific probes and results normalized to either endogenous β-actin or PPIB using the standard 2^−ΔΔCt method. These studies identified 6 siRNAs that at a concentration of 5 nM down regulated AR mRNA in 22RV1 and LNCaP cells by more than 80% compared to controls (Table 4).

AR mRNA [3] = test: AR mRNA downregulation by RT-qPCR at 5 nM siRNA in LNCaP cells; details: 24 hrs post-transfection
Protocol: as §3

AR mRNA [4] = test: AR mRNA IC50 and maximal KD, siRNA at various concentrations, LNCaP cells, qPCR probes exon junctions 1/2 or 4/5
Protocol: as §3
(§4) To determine the concentration required to reduce AR expression by 50% (IC50) and maximal KD activity, these siRNAs were transfected into LNCaP, C4-2, and 22RV1 cells at various concentrations starting at 100 nM. C4-2 (MD Anderson) is an LNCaP subline that has been selected for resistance against clinically used AR antagonists (Wu et al., “Derivation of androgen-independent human LNCaP prostatic cancer cell sublines: Role of bone stromal cells,” International J Cancer 1994; 57:406-412). Cells were harvested 48 h post-transfection; RNA was prepared and analyzed as stated above. For these experiments, specific AR qPCR probes located at the exon junctions 1/2 or 4/5 were used that recognize most mRNAs of relevant AR isoforms or primarily full length AR mRNA, respectively. All tested siRNAs lowered AR expression with subnanomolar potency to 70% in 22RV1 cells and to ≥90% in LNCaP and C4-2 cells (Table 5). […]

AR mRNA [5] = test: AR mRNA IC50 and maximal KD, siRNA at various concentrations, C4-2 cells, qPCR probes exon junctions 1/2 or 4/5
Protocol: as §3, §4

AR mRNA [6] = test: AR mRNA IC50 and maximal KD, siRNA at various concentrations, 22RV1 cells, qPCR probes exon junctions 1/2 or 4/5
Protocol: as §3, §4

[7] = AR qPCR probe at exon junction 1/2, 48 h post-transfection
[8] = AR qPCR probe at exon junction 4/5, 48 h post-transfection

Substance	% KD AR Protein 22RV1 AR FL(1) (AR FL(1)) [%]	% KD AR Protein 22RV1 AR-SV(2) (AR-SV(2)) [%]	% KD AR Protein 22RV1 AR-SV(3) (AR-SV(3)) [%]	% KD AR Protein LNCaP AR FL [1] [%]	% KD AR RNA 22RV1 (AR mRNA [2]) [%]	% KD AR RNA LNCaP (AR mRNA [3]) [%]	max KD (%), LNCaP, Exon 1/2 (AR mRNA [4]; [7]) [%]	IC50 (AR mRNA [4]; AR qPCR probe at exon junction 1/2, 48 h post-transfection, read-out: IC50 (nM), LNCaP, Exon 1/2) [nM]	max KD (%), LNCaP, Exon 4/5 (AR mRNA [4]; [8]) [%]	IC50 (AR mRNA [4]; AR qPCR probe at exon junction 4/5, 48 h post-transfection, read-out: IC50 (nM), LNCaP, Exon 4/5) [nM]	max KD (%), C4-2, Exon 1/2 (AR mRNA [5]; [7]) [%]	IC50 (AR mRNA [5]; AR qPCR probe at exon junction 1/2, 48 h post-transfection, read-out: IC50 (nM), C4-2, Exon 1/2) [nM]	max KD (%), C4-2, Exon 4/5 (AR mRNA [5]; [8]) [%]	IC50 (AR mRNA [5]; AR qPCR probe at exon junction 4/5, 48 h post-transfection, read-out: IC50 (nM), C4-2, Exon 4/5) [nM]	max KD (%), 22RV1, Exon 1/2 (AR mRNA [6]; [7]) [%]	IC50 (AR mRNA [6]; AR qPCR probe at exon junction 1/2, 48 h post-transfection, read-out: IC50 (nM), 22RV1, Exon 1/2) [nM]	max KD (%), 22RV1, Exon 4/5 (AR mRNA [6]; [8]) [%]	IC50 (AR mRNA [6]; AR qPCR probe at exon junction 4/5, 48 h post-transfection, read-out: IC50 (nM), 22RV1, Exon 4/5) [nM]
XD-01825: AR siRNA with chemical modification, Id # 2814; sense X05345 (SEQ ID NO: 175), antisense X05346 (SEQ ID NO: 176) (sense mGmCfUmUfCmUfGmGfGmUfGmUfCmAfCmUfAmUfGdT*dT; antisense fCfAmUfAmGfUmGfAmCfAmCfCmCfAmGfAmAfGmCdT*dT)	90	93	95	91	91	82	82.5	0.02	84.9	0.018	83.5	0.024	84.6	0.026	53.5	0.067	60.7	0.055
XD-01816: AR siRNA with chemical modification, Id # 1984; sense X05327 (SEQ ID NO: 157), antisense X05328 (SEQ ID NO: 158) (sense mGmCfAmAfAmGfGmUfUmCfUmCfUmGfCmUfAmGfAdT*dT; antisense fUfCmUfAmGfCmAfGmAfGmAfAmCfCmUfUmUfGmCdT*dT)	57	66	69	97	60	74												
XD-01821: AR siRNA with chemical modification, Id # 2207; sense X05337 (SEQ ID NO: 167), antisense X05338 (SEQ ID NO: 168) (sense mCmUfAmCfAmAfCmUfUmUfCmCfAmCfUmGfGmCfUdT*dT; antisense fAfGmCfCmAfGmUfGmGfAmAfAmGfUmUfGmUfAmGdT*dT)	73	80	7	96	68	81												
XD-01833: AR siRNA with chemical modification, Id # 2922; sense X05361 (SEQ ID NO: 191), antisense X05362 (SEQ ID NO: 192) (sense mAmCfUmAfUmUfGmAfUmAfAmAfUmUfCmCfGmAfAdT*dT; antisense fUfUmCfGmGfAmAfUmUfUmAfUmCfAmAfUmAfGmUdT*dT)	94	91	77	91														
XD-01813: AR siRNA with chemical modification, Id # 1201; sense X05321 (SEQ ID NO: 151), antisense X05322 (SEQ ID NO: 152) (sense mGmCfGmUfGmCfGmCfGmAfAmGfUmGfAmUfCmCfAdT*dT; antisense fUfGmGfAmUfCmAfCmUfUmCfGmCfGmCfAmCfGmCdT*dT)	73	77	80	98	53	66												
